No end group written: not given here.
Key:
[1] = tested on: T1, proteasome in HEK293T cells; test: 20S activity in cellulo (TAS3 assay); assay type: cell-based, human; settings: 10 µM TAS3 in KRBH buffer, 30 min preincubation with compound, 37 °C, linear regression of last 60 min, triplicate, Btz 10 µM
T1 construct: HEK293T cells were seeded in black 96-well plates; endogenous in cells; host or cells: HEK293T
Description: HEK293T cells were seeded in black 96-well plates at 7 × 10^3 cells/well and incubated in DMEM supplemented with 10% FBS and penicillin/streptomycin (100 units/mL/100 µg/mL) at 37 °C with 5% CO2. […] After this time, the cells were treated with the tested peptides/peptidomimetics (1–50 µM in medium). Each sample was prepared in triplicate. The plates were incubated for an additional 30 min. Subsequently, the medium was removed, and 100 µL of 10 µM TAS3 in Krebs-Ringer Bicarbonate (KRBH) buffer, containing the tested modulator, was added to the wells. The fluorescence intensity was monitored every 2 min over a 90 min period at 37 °C using a Tecan Infinite M200 Pro plate reader (Tecan Trading AG, Männedorf, Switzerland) with the excitation and emission wavelengths set at 485 nm and 535 nm, respectively. A linear regression analysis was performed for the last 60 min of the measurement. Any increase or decrease in activity of the 20S was compared to that of the control (cells incubated with TAS3 probe in KRBH buffer) and calculated based on the change in fluorescence units per time [40]. To determine statistical significance, ordinary one-way ANOVA was used.

HEK293T cells = assay type: in vitro ADME, human
Excerpt: One of the obstacles in the development of peptide drugs is their low cell permeability. To evaluate if the peptide-based proteasome activators can cross the cell membrane, we synthesized an analog of peptide 7; labeled the ε-amine group of the N-terminal lysine residue with a fluorescent dye, 5/6-carboxytetramethylrhodamine (TAMRA); and used confocal microscopy to detect its entry into cells. […] Therefore, 7 was combined with the HIV-1 TAT protein-derived, membrane-penetrating peptide sequence GRKKRRQRRR (TAT 48–57), separated by the 20S proteasome recognition sequence, LLVY.
TAMRA fluorescent tags were attached to the N-terminal […] group of the lysine residue of compound 7 and the ε-amino group of the corresponding lysine residue in compound TAT-7 before the final deprotection and cleavage of the compounds from the solid support. To achieve the selective attachment of the label to the proper ε-amino group, the Fmoc-Lys(Mtt)-OH was used in this position during peptide elongation. […]
Human embryonic kidney cells (HEK293T, a generous gift of Prof. Grzegorz Węgrzyn, Faculty of Biology, University of Gdańsk, Gdańsk, Poland) were maintained in Dulbecco’s Modified Eagle Medium (DMEM) supplemented with 10% Fetal Bovine Serum (FBS) and penicillin/streptomycin (100 units/mL/100 µg/mL), at 37 °C with 5% CO2. […] The images were merged, and the colocalization of the dye emission was analyzed.

Molecule	ΔRFU/min (change in fluorescence units per minute, TAS3 probe) [1]	cell permeability / cellular internalization (result in words) (HEK293T cells)
CC(C)C[C@H](NC(=O)[C@H](Cc1ccccc1)NC(=O)c1cnccn1)B(O)O [Btz, bortezomib]	3.7 RFU/min	
KKKANLQYYA [compound 7]		only slightly cell permeable
